Measured values from US20020051978A1, “Methods and compositions for the identification, assessment, prevention and therapy of human cancers” (priority 2000, published 2002).
Where “and” joins values, the source holds several entries; their conditions need not be identical. Equal values may be shown once. Read-outs that look alike come from different tables or passages of the source.

Tested on: 60 cancer cell lines (NCI 60 cancer cell line series)
Assay: NCI-DTP in vitro cancer screen, sulforhodamine B (SRB) growth inhibition, 48 hour exposure
Format: cell-based, human
Experimental: Cancer Cell Line Preparation. Sixty cancer cell lines were obtained from the National Cancer Institute Developmental Therapeutics Program (NCI-DTP). Procedures for growing cells and testing compounds have been described previously (Scudiero et al., Cancer Res. 1988, 48:4827-4833; Stinson et al., Anticancer Res.; Myers et al., Electrophoresis 1997, 18:647-653). Cells are plated on day 0 at a density individualized for each cell line so that they will generally be sub-confluent at the end of the assay period. On day 1, a compound is added in the format for a duplicate-well, 5-dose, ten-fold interval dose response study.
No-drug, no-cell and no-growth controls are included. On day 3 the cells are processed for staining with sulforhodamine B (SRB), which reflects the amount of cell mass present at the end of a 48 hour exposure to the test agent. From dose response curves based on the SRB data, various parameters can be determined. The one used in the present study is the G15o, defined as the concentration of compound required to inhibit growth of the cell line by 50%. More precisely, the quantity used in the calculation to be described is the potency measure -log{GI50}.
Activity database (A). Table IA, consisting of the growth inhibition (GI5o) values for the 60 cell lines and 24 compounds, was created from the NCI-DTP in vitro cancer screen database. This subset of compounds was selected from the larger 23,000 compound database available from the DTP. The compounds were selected on the basis of their known mechanism of action and chemical structure. The average potency—log{GI50} was extracted from the comma-delimited text files available through the Web at http://www.nci.nih.gov/intra/lmp/jnwbio.htmrl. Subsequently, these log{GI5o} values were inspected manually and classified as indicating either Low, Medium or High sensitivity to each compound.

COc1cccc2c1C(=O)c1c(O)c3c(c(O)c1C2=O)C[C@@](O)(C(=O)CO)C[C@@H]3O[C@H]1C[C@H](N)[C@H](O)[C@H](C)O1 [Adrlamycin]
classification of cell line as Low(1), Medium(2) or High(3) sensitivity to compound (Breast BT-549 (CL5013)): 2 | classification of cell line as Low(1), Medium(2) or High(3) sensitivity to compound (Breast HS-578T CL5006): 2 | classification of cell line as Low(1), Medium(2) or High(3) sensitivity to compound (Breast MCF7(I) (CL5001)): 3 | classification of cell line as Low(1), Medium(2) or High(3) sensitivity to compound (Breast MCF7/ADRr (CL5002)): 1 | classification of cell line as Low(1), Medium(2) or High(3) sensitivity to compound (Breast MDA-MB-231 CL5005): 2 | classification of cell line as Low(1), Medium(2) or High(3) sensitivity to compound (Breast MDA-MB-435 (CL5011)): 2 | classification of cell line as Low(1), Medium(2) or High(3) sensitivity to compound (Breast MDA-N CL5012): 2 | classification of cell line as Low(1), Medium(2) or High(3) sensitivity to compound (Breast T-47D (CL5014)): 2 | classification of cell line as Low(1), Medium(2) or High(3) sensitivity to compound (CNS SF-268 CL12014): 2 | classification of cell line as Low(1), Medium(2) or High(3) sensitivity to compound (CNS SF-295 CL12015): 2

Nc1ccn([C@@H]2O[C@H](CO)[C@@H](O)[C@@H]2O)c(=O)n1 [AraC]
1 # of Low: 17 | 2 # of Medium: 33 | 3 # of High: 10 | classification of cell line as Low(1), Medium(2) or High(3) sensitivity to compound: 2 and 3 and 1 | sensitivity class NSCLC NCI-H23(I) CL1001: 3 | sensitivity class NSCLC NCI-H332M CL1017: 2 | sensitivity class NSCLC NCI-H460 CL1021: 3 | sensitivity class NSCLC NCI-H522 CL1003: 2 | sensitivity class Ovarian IGROV1 CL6010: 1 | sensitivity class Ovarian OVCAR-3 CL6001: 1 | sensitivity class Ovarian OVCAR-4 CL6002: 1 | sensitivity class Ovarian OVCAR-5 CL6003: 2 | sensitivity class Ovarian OVCAR-8 CL6005: 2 | sensitivity class Ovarian SK-OV-3 CL6011: 2 | sensitivity class Prostate DU-145 CL11003: 1 | sensitivity class Prostate PC-3(I) CL11001: 2 | sensitivity class Renal 786-O CL9018: 2 | sensitivity class Renal A498 CL9013: 2 | sensitivity class Renal ACHN CL9023: 2 | sensitivity class Renal CAKI-1 CL9015: 2 | sensitivity class Renal RXF-393 CL9016: 2 | sensitivity class Renal SN12C CL9008: 2 | sensitivity class Renal TK10 CL9024: 1 | sensitivity class Renal UO-31 CL9004: 2 | sensitivity class of the cell line to the compound (1 Low, 2 Medium, 3 High): 2 and 1 and 3

O=NN(CCCl)C(=O)NCCCl [BCNU]
1 # of Low: 13 | 2 # of Medium: 37 | 3 # of High: 10 | sensitivity class NSCLC NCI-H23(I) CL1001: 2 | sensitivity class NSCLC NCI-H332M CL1017: 1 | sensitivity class NSCLC NCI-H460 CL1021: 2 | sensitivity class NSCLC NCI-H522 CL1003: 3 | sensitivity class Ovarian IGROV1 CL6010: 2 | sensitivity class Ovarian OVCAR-3 CL6001: 2 | sensitivity class Ovarian OVCAR-4 CL6002: 2 | sensitivity class Ovarian OVCAR-5 CL6003: 1 | sensitivity class Ovarian OVCAR-8 CL6005: 2 | sensitivity class Ovarian SK-OV-3 CL6011: 1 | sensitivity class Prostate DU-145 CL11003: 1 | sensitivity class Prostate PC-3(I) CL11001: 2 | sensitivity class Renal 786-O CL9018: 3 | sensitivity class Renal A498 CL9013: 1 | sensitivity class Renal ACHN CL9023: 2 | sensitivity class Renal CAKI-1 CL9015: 2 | sensitivity class Renal RXF-393 CL9016: 2 | sensitivity class Renal SN12C CL9008: 2 | sensitivity class Renal TK10 CL9024: 2 | sensitivity class Renal UO-31 CL9004: 1

COc1cccc2c1C(=O)c1c(O)c3c(c(O)c1C2=O)C[C@@](O)(C(=O)CO)C[C@@H]3O[C@H]1C[C@H](N)C[C@H](C)O1 [Deoxydoxorubicin]
classification of cell line as Low(1), Medium(2) or High(3) sensitivity to compound (Breast BT-549 (CL5013)): 2 | classification of cell line as Low(1), Medium(2) or High(3) sensitivity to compound (Breast MCF7/ADRr (CL5002)): 1 | classification of cell line as Low(1), Medium(2) or High(3) sensitivity to compound (Breast MDA-N CL5012): 2 | classification of cell line as Low(1), Medium(2) or High(3) sensitivity to compound (CNS SF-268 CL12014): 2 | classification of cell line as Low(1), Medium(2) or High(3) sensitivity to compound (CNS SF-295 CL12015): 2 | classification of cell line as Low(1), Medium(2) or High(3) sensitivity to compound (CNS SF-539 CL12016): 2 | classification of cell line as Low(1), Medium(2) or High(3) sensitivity to compound (CNS SNB-19 (CL12002)): 2 | classification of cell line as Low(1), Medium(2) or High(3) sensitivity to compound (CNS SNB-75(I) CL12005): 2 | classification of cell line as Low(1), Medium(2) or High(3) sensitivity to compound (CNS U251(I) CL12009): 2 | classification of cell line as Low(1), Medium(2) or High(3) sensitivity to compound (Colon COLO-250 CL4010): 2 | classification of cell line as Low(1), Medium(2) or High(3) sensitivity to compound (Colon HCT-15 CL4015): 1 | classification of cell line as Low(1), Medium(2) or High(3) sensitivity to compound (Colon HT29(I) CL4001): 2 | classification of cell line as Low(1), Medium(2) or High(3) sensitivity to compound (Colon KM12 (CL4017)): 2 | classification of cell line as Low(1), Medium(2) or High(3) sensitivity to compound (Leukemia CCRF-CEM(I) (CL7003)): 2 | classification of cell line as Low(1), Medium(2) or High(3) sensitivity to compound (Leukemia K562(I) CL7005): 2 | classification of cell line as Low(1), Medium(2) or High(3) sensitivity to compound (Leukemia RPMI-8226(I) (CL7010)): 2 | classification of cell line as Low(1), Medium(2) or High(3) sensitivity to compound (Leukemia SR CL7019): 3 | classification of cell line as Low(1), Medium(2) or High(3) sensitivity to compound (Melanoma LOX IMVI CL10001): 2 | classification of cell line as Low(1), Medium(2) or High(3) sensitivity to compound (Melanoma M14 (CL10014)): 2 | classification of cell line as Low(1), Medium(2) or High(3) sensitivity to compound (Melanoma MALME-3M CL10002): 2 | sensitivity class NSCLC NCI-H23(I) CL1001 (cell line NSCLC NCI-H23(I), CL1001): 2 | sensitivity class NSCLC NCI-H522 CL1003 (cell line NSCLC NCI-H522, CL1003): 2 | sensitivity class Ovarian IGROV1 CL6010 (cell line Ovarian IGROV1, CL6010): 2 | sensitivity class Ovarian OVCAR-3 CL6001 (cell line Ovarian OVCAR-3, CL6001): 2 | sensitivity class Ovarian OVCAR-4 CL6002 (cell line Ovarian OVCAR-4, CL6002): 2 | sensitivity class Ovarian OVCAR-8 CL6005 (cell line Ovarian OVCAR-8, CL6005): 2 | sensitivity class Ovarian SK-OV-3 CL6011 (cell line Ovarian SK-OV-3, CL6011): 2 | sensitivity class Prostate DU-145 CL11003 (cell line Prostate DU-145, CL11003): 2 | sensitivity class Prostate PC-3(I) CL11001 (cell line Prostate PC-3(I), CL11001): 2 | sensitivity class Renal A498 CL9013 (cell line Renal A498, CL9013): 2 | sensitivity class Renal SN12C CL9008 (cell line Renal SN12C, CL9008): 2 | sensitivity class Renal TK10 CL9024 (cell line Renal TK10, CL9024): 1 | sensitivity class Renal UO-31 CL9004 (cell line Renal UO-31, CL9004): 1 | 3 # of High (number of the 60 cell lines classified High (3) sensitivity): 7

CC(=O)O[C@H]1C(=O)[C@@]2(C)[C@H]([C@H](OC(=O)c3ccccc3)[C@]3(O)C[C@H](OC(=O)[C@H](O)[C@@H](NC(=O)c4ccccc4)c4ccccc4)C(C)=C1C3(C)C)[C@]1(OC(C)=O)CO[C@@H]1C[C@@H]2O [TAXOL, paclitaxel, reference compound]
classification of cell line as Low(1), Medium(2) or High(3) sensitivity to compound: 2 and 1 and 3 | sensitivity class NSCLC NCI-H23(I) CL1001: 2 | sensitivity class NSCLC NCI-H332M CL1017: 2 | sensitivity class Ovarian IGROV1 CL6010: 2 | sensitivity class Ovarian OVCAR-4 CL6002: 1 | sensitivity class Ovarian OVCAR-8 CL6005: 2 | sensitivity class Ovarian SK-OV-3 CL6011: 2 | sensitivity class Prostate DU-145 CL11003: 2 | sensitivity class Prostate PC-3(I) CL11001: 2 | sensitivity class Renal 786-O CL9018: 2 | sensitivity class Renal ACHN CL9023: 1 | sensitivity class Renal CAKI-1 CL9015: 1 | sensitivity class Renal RXF-393 CL9016: 2 | sensitivity class Renal SN12C CL9008: 2 | sensitivity class Renal UO-31 CL9004: 1 | sensitivity class of the cell line to the compound (1 Low, 2 Medium, 3 High): 1 and 3 and 2

CC[C@]1(O)C[C@@H]2CN(CCc3c([nH]c4ccccc34)[C@@](C(=O)OC)(c3cc4c(cc3OC)N(C)[C@H]3[C@@](O)(C(=O)OC)[C@H](OC(C)=O)[C@]5(CC)C=CCN6CC[C@]43[C@@H]65)C2)C1.O=S(=O)(O)O [Vinbiastine sulfate]
classification of cell line as Low(1), Medium(2) or High(3) sensitivity to compound: 2 and 3 and 1
